Patent publication EP2857388A1, “Azoles containing sulfone” (Grünenthal GmbH, priority 2013, dated 2015)

Molecular target: T1, human B1R (Homo sapiens, UniProt P46663)
T1 construct: expressed in transfected cells; host or cells: CHO K1 cells (Chinese Hamster Ovary), stably transfected
T1 sequence (P46663 1-353): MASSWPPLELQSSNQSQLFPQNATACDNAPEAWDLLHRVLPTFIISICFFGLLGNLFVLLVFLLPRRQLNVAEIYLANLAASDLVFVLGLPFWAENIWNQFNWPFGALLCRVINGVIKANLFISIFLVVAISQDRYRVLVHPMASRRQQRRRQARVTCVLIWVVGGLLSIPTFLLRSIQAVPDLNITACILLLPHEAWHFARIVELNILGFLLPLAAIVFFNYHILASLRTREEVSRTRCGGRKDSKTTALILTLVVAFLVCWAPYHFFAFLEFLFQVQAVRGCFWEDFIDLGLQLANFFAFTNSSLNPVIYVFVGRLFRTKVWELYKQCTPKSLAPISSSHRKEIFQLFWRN
Assay: Functional assay at bradykinin receptor 1 (B1R): Ca2+ fluorescence (Fluo-4) in FLIPR/Novostar, antagonist mode
Assay type: cell-based
Conditions: test substance 10 µM; CHO K1 cells stably transfected with human B1R gene (hB1R-Zellen); agonist Lys-Des-Arg9-Bradykinin at EC80; % inhibition relative to maximal achievable inhibition; read-out: % Inhibierung (human B1R) bei 10 µM
Method in brief: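 Antagonism read as suppression of the Ca2+ rise in Fluo-4-loaded, hB1R-transfected CHO K1 cells when Lys-Des-Arg9-bradykinin (EC80) follows a 6–20 min compound preincubation. Maximal fluorescence counts, measured on FLIPR or Novostar, yield % inhibition relative to maximum; IC50 values come from concentration series run in duplicate or triplicate.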

Row | SMILES | inhibition at 10 µM [%]
1 | COc1cc(C)c(S(=O)(=O)Cc2c(C)nn(CC(=O)NC3CCN(C)CC3(C)C)c2C)c(C)c1 (stereo not drawn) [CC-184, 2-[4-[[(4-Methoxy-2,6-dimethyl-phenyl)sulfonyl]-methyl]-3,5-dimethyl-1H-pyrazol-1-yl]-N-(1,3,3-trimethyl-piperidin-4-yl)-acetamid] | 100
2 | COc1cc(C)c(S(=O)(=O)Cc2c(C)nn(CC(=O)N(C)C3CCNCC3(C)C)c2C)c(C)c1 (stereo not drawn) [CC-185, N-(3,3-Dimethyl-piperidin-4-yl)-2-[4-[[(4-methoxy-2,6-dimethyl-phenyl)sulfonyl]-methyl]-3,5-dimethyl-1 H-pyrazol-1-yl]-N-methyl-acetamid] | 72
3 | COc1cc(C)c(S(=O)(=O)Cc2cn(CC(=O)N(C3CCC(N(C)C)CC3)C3CC3)nn2)c(C)c1 (stereo not drawn) [CC-186, N-Cyclopropyl-N-(4-dimethylamino-cyclohexyl)-2-[4-[[(4-methoxy-2,6-dimethyl-phenyl)sulfonyl]-methyl]-1H-[1,2,3]triazol-1-yl]-acetamid] | 100
4 | COc1cc(C)c(S(=O)(=O)Cc2cc(C)n(CC(=O)NC3CCN(C)CC3(C)C)n2)c(C)c1 (stereo not drawn) [CC-188, 2-[3-[[(4-Methoxy-2,6-dimethyl-phenyl)sulfonyl]-methyl]-5-methyl-1H-pyrazol-1-yl]-N-(1,3,3-trimethyl-piperidin-4-yl)-acetamid] | 57
5 | COc1cc(C)c(S(=O)(=O)Cc2noc(C(=O)NC3CCN(c4ccncc4)CC3)n2)c(C)c1 [SC-01, 3-[[(4-Methoxy-2,6-dimethyl-phenyl)sulfonyl]-methyl]-N-(1-pyridin-4-yl-piperidin-4-yl)-[1,2,4]oxadiazol-5-carbonsäure amid] | 99
6 | COc1cc(C)c(S(=O)(=O)Cc2noc(C(=O)N3CC4(CCN(c5ccncc5)CC4)C3)n2)c(C)c1 [SC-02, [3-[[(4-Methoxy-2,6-dimethyl-phenyl)sulfonyl]-methyl]-[1,2,4]oxadiazol-5-yl]-(7-pyridin-4-yl-2,7-diazaspiro[3.5]nonan-2-yl)-methanon] | 100
7 | COc1cc(C)c(S(=O)(=O)Cc2noc(C(=O)N3CCC(Oc4ccncc4)C3)n2)c(C)c1 (stereo not drawn) [SC-03, [3-[[(4-Methoxy-2,6-dimethyl-phenyl)sulfonyl]-methyl]-[1,2,4]oxadiazol-5-yl]-(3-pyridin-4-yloxy-pyrrolidin-1-yl)-methanon] | 98
8 | COc1cc(C)c(S(=O)(=O)Cc2noc(C(=O)N3CCC4(CCN(c5ccncc5)CC4)C3)n2)c(C)c1 [SC-04, [3-[[(4-Methoxy-2,6-dimethyl-phenyl)sulfonyl]-methyl]-[1,2,4]oxadiazol-5-yl]-(8-pyridin-4-yl-3,8-diazaspiro[4.5]decan-3-yl)-methanon] | 100
9 | COc1cc(C)c(S(=O)(=O)Cc2noc(C(=O)N3CCC4(CCN(c5ccncc5)C4)C3)n2)c(C)c1 (stereo not drawn) [SC-05, [3-[[(4-Methoxy-2,6-dimethyl-phenyl)sulfonyl]-methyl]-[1,2,4]oxadiazol-5-yl]-(8-pyridin-4-yl-3,8-diazaspiro[4.4]nonan-3-yl)-methanon] | 100
10 | COc1cc(C)c(S(=O)(=O)Cc2noc(C(=O)NC3CCN(c4ccc(C(F)(F)F)cn4)C3)n2)c(C)c1 (stereo not drawn) [SC-06, 3-[[(4-Methoxy-2,6-dimethyl-phenyl)sulfonyl]-methyl]-N-[1-[5-(trifluormethyl)-pyridin-2-yl]-pyrrolidin-3-yl]-[1,2,4]oxadiazol-5-carbonsäure amid] | 94
11 | COc1cc(C)c(S(=O)(=O)Cc2noc(C(=O)N3CCC(CN4CCN(C)CC4)C3)n2)c(C)c1 (stereo not drawn) [SC-07, [3-[[(4-Methoxy-2,6-dimethyl-phenyl)sulfonyl]-methyl]-[1,2,4]oxadiazol-5-yl]-[3-[(4-methyl-piperazin-1-yl)-methyl]-pyrrolidin-1-yl]-methanon] | 100
12 | COc1cc(C)c(S(=O)(=O)Cc2noc(C(=O)N3CCC(Cc4ccncc4)CC3)n2)c(C)c1 [SC-08, [3-[[(4-Methoxy-2,6-dimethyl-phenyl)sulfonyl]-methyl]-[1,2,4]oxadiazol-5-yl]-[4-(pyridin-4-yl-methyl)-piperidin-1-yl]-methanon] | 99
13 | COc1cc(C)c(S(=O)(=O)Cc2noc(C(=O)N3CCC4(CCC(Oc5ccncc5)CC4)CC3)n2)c(C)c1 [SC-09, [3-[[(4-Methoxy-2,6-dimethyl-phenyl)sulfonyl]-methyl]-[1,2,4]oxadiazol-5-yl]-(9-pyridin-4-yloxy-3-azaspiro[5.5]undecan-3-yl)-methanon] | 99
14 | COc1cc(C)c(S(=O)(=O)Cc2noc(C(=O)N3CCC4(CC3)CCN(c3ccncc3)CC4)n2)c(C)c1 [SC-10, [3-[[(4-Methoxy-2,6-dimethyl-phenyl)sulfonyl]-methyl]-[1,2,4]oxadiazol-5-yl]-(9-pyridin-4-yl-3,9-diazaspiro[5.5]undecan-3-yl)-methanon] | 100
15 | COc1cc(C)c(S(=O)(=O)Cc2noc(CC(=O)N3CCC4(CC3)CCN(c3ccncc3)CC4)n2)c(C)c1 [SC-11, 2-[3-[[(4-Methoxy-2,6-dimethyl-phenyl)sulfonyl]-methyl]-[1,2,4]oxadiazol-5-yl]-1-(9-pyridin-4-yl-3,9-diazaspiro[5.5]undecan-3-yl)-ethanon] | 99
16 | COc1cc(C)c(S(=O)(=O)Cc2noc(C(=O)NC3CCN(c4ccncc4)CC3(C)C)n2)c(C)c1 (stereo not drawn) [SC-12, N-(3,3-Dimethyl-1-pyridin-4-yl-piperidin-4-yl)-3-[[(4-methoxy-2,6-dimethyl-phenyl)sulfonyl]-methyl]-[1,2,4]oxadiazol-5-carbonsäure amid] | 100
17 | COc1cc(C)c(S(=O)(=O)Cc2noc(CC(=O)NC3CCC(N4CCN(C)CC4)CC3(C)C)n2)c(C)c1 (stereo not drawn) [SC-13, N-[2,2-Dimethyl-4-(4-methyl-piperazin-1-yl)-cyclohexyl]-2-[3-[[(4-methoxy-2,6-dimethyl-phenyl)sulfonyl]-methyl]-[1,2,4]oxadiazol-5-yl]-acetamid] | 100
18 | COc1cc(C)c(S(=O)(=O)Cc2noc(CC(=O)NC3CCN(c4ccncc4)CC3(C)C)n2)c(C)c1 (stereo not drawn) [SC-14, N-(3,3-Dimethyl-1-pyridin-4-yl-piperidin-4-yl)-2-[3-[[(4-methoxy-2,6-dimethyl-phenyl)sulfonyl]-methyl]-[1,2,4]oxadiazol-5-yl]-acetamid] | 100
19 | COc1cc(C)c(S(=O)(=O)Cc2noc(C(=O)NC3CCC(N4CCN(C)CC4)CC3(C)C)n2)c(C)c1 (stereo not drawn) [SC-16, N-[2,2-Dimethyl-4-(4-methyl-piperazin-1-yl)-cyclohexyl]-3-[[(4-methoxy-2,6-dimethyl-phenyl)-sulfonyl]-methyl]-[1,2,4]oxadiazol-5-carbonsäure amid] | 99
20 | COc1cc(C)c(S(=O)(=O)Cc2noc(C(=O)NC3CCC(c4ccncc4)CC3)n2)c(C)c1 (stereo not drawn) [SC-18, 3-[[(4-Methoxy-2,6-dimethyl-phenyl)sulfonyl]-methyl]-N-(4-pyridin-4-yl-cyclohexyl)-[1,2,4]oxadiazol-5-carbonsäure amid] | 97
21 | COc1cc(C)c(S(=O)(=O)Cc2noc(C(=O)NC3CCC(Cc4ccncc4)CC3)n2)c(C)c1 (stereo not drawn) [SC-19, 3-[[(4-Methoxy-2,6-dimethyl-phenyl)sulfonyl]-methyl]-N-[4-(pyridin-4-yl-methyl)-cyclohexyl]-[1,2,4]oxadiazol-5-carbonsäure amid] | 99
22 | COc1cc(C)c(S(=O)(=O)Cc2noc(CC(=O)N(C)C3CCN(C4CCC(C)CC4)CC3)n2)c(C)c1 (stereo not drawn) [SC-20, 2-[3-[[(4-Methoxy-2,6-dimethyl-phenyl)sulfonyl]-methyl]-[1,2,4]oxadiazol-5-yl]-N-methyl-N-[1-(4-methyl-cyclohexyl)-piperidin-4-yl]-acetamid] | 100
23 | COc1cc(C)c(S(=O)(=O)Cc2noc(CC(=O)N(C)C3CCN(C4CCOCC4)CC3)n2)c(C)c1 [SC-21, 2-[3-[[(4-Methoxy-2,6-dimethyl-phenyl)sulfonyl]-methyl]-[1,2,4]oxadiazol-5-yl]-N-methyl-N-(1-tetrahydro-pyran-4-yl-piperidin-4-yl)-acetamid] | 100
24 | COc1cc(C)c(S(=O)(=O)Cc2noc(CC(=O)N(C3CC3)C3CCN(c4ccncc4)CC3)n2)c(C)c1 [SC-22, N-Cyclopropyl-2-[3-[[(4-methoxy-2,6-dimethyl-phenyl)sulfonyl]-methyl]-[1,2,4]oxadiazol-5-yl]-N-(1-pyridin-4-yl-piperidin-4-yl)-acetamid] | 100
25 | COc1cc(C)c(S(=O)(=O)Cc2noc(CC(=O)N(C)C3CCN(C(=O)c4ccncc4)CC3)n2)c(C)c1 [SC-27, 2-[3-[[(4-Methoxy-2,6-dimethyl-phenyl)sulfonyl]-methyl]-[1,2,4]oxadiazol-5-yl]-N-methyl-N-[1-(pyridin-4-carbonyl)-piperidin-4-yl]-acetamid] | 98
26 | COc1cc(C)c(S(=O)(=O)Cc2noc(C(=O)NCC3CCC(c4ccncc4)CC3)n2)c(C)c1 (stereo not drawn) [SC-30, 3-[[(4-Methoxy-2,6-dimethyl-phenyl)sulfonyl]-methyl]-N-[(4-pyridin-4-yl-cyclohexyl)-methyl]-[1,2,4]oxadiazol-5-carbonsäure amid] | 98
27 | COc1cc(C)c(S(=O)(=O)Cc2noc(C(=O)NC3CCC(c4ccncc4)CC3(C)C)n2)c(C)c1 (stereo not drawn) [SC-31, N-(2,2-Dimethyl-4-pyridin-4-yl-cyclohexyl)-3-[[(4-methoxy-2,6-dimethyl-phenyl)sulfonyl]-methyl]-[1,2,4]oxadiazol-5-carbonsäure amid] | 97
